Assay results as given in US20190038597A1, “PREVENTION OF VASCULAR AND CARDIAC FIBROSIS VIA IRE1ALPHA INHIBITION” (McMaster University, priority 2017, published 2019).

How the values were obtained:
[1] = test system: primary rat renal fibroblasts; experiment: Picro-Sirius Red assay of collagen production in renal fibroblasts; type: cell-based; settings: AA2P, TGF-β1, 72 h co-treatment, FIG. 3
Procedure: Rat renal fibroblasts were treated with L-ascorbic acid-2-phosphate, TGF-β1 and 4μ8c for 72 h. Collagen production was measured by a Picro-Sirius Red assay. **, p<0.01.
VSMCs were isolated from the aortas of 5-week old WKY rats using the explant method^29. The thoracic aorta was removed from the animal and placed in ice-cold 5× Antibiotics-Antimycotics solution (ThermoFisher). The adventitia was gently removed and the aorta was cut longitudinally. The endothelial layer was removed by gentle scraping with forceps. The aorta was cut into 3 mm^2 squares and placed on a 6 well plate in DMEM/F12 medium containing 10% fetal bovine serum (FBS). Explants were incubated undisturbed in a 5% CO2 incubator at 37° C. for 1 week and then passaged. Sprague-Dawley renal fibroblasts were purchased (Cell Biologics) and cultured in low glucose DMEM/F12 medium containing 10% FBS, streptomycin (100 μgimp, and penicillin (100 U/ml, Invitrogen, Burlington, ON). Cells between passages 5 and 10 were used for experiments. Cells were cultured in medium containing 1% FBS overnight before treatment.
Collagen synthesis was measured using a Picro-Sirius Red-based assay as previously described^30. Briefly, cells cultured on a 96 well plate were fixed in methanol for 10 minutes at −20° C. […] Absorbance at 540 nm was measured using a Spectramax Plus Microplate Reader (Molecular Devices). […]

[2] = test system: SHR/L-NAME model of hypertension; experiment: Radiotelemetry blood pressure and heart rate in L-NAME-treated SHRs; type: in vivo, rat
Procedure: 12-14 week old male SHRs were implanted with radiotelemetry devices and randomized to receive vehicle, L-NAME (50 mg/L) or L-NAME and 4μ8c (2.5 mg/kg/day i.p.) for 18 days. Systolic (A), diastolic (B), and heart rate (C) were monitored. Data is presented as mean±SEM. *, p<0.05 vs. NT; #, p<0.05 vs. L-NAME. N≥4 per group.
(§1) 12-14 week old male SHRs were used to determine the effect of pharmacological IRE1α inhibition on L-NAME-induced vascular stiffening. They were maintained on a 12-hour light-dark cycle with rat chow and water ad libitium. Animals were implanted with radio-telemetry devices (Data Science International, St. Paul, Minn., USA) one week before the start of the study. Animals were randomized into one of three groups (n=6 per group): 1) No treatment, 2) L-NAME (50 mg/L in drinking water, Sigma-Aldrich), or 3) L-NAME+4μ8c (2.5 mg/kg/day i.p., Millipore). 4μ8c was administered in a vehicle of 10% DMSO, 10% Tween-80 and 80% normal saline. Animals in Group 2 received daily injections of the vehicle. All animals were fed a normal chow diet. At 18 days, animals were sacrificed, organs were harvested and the aorta was collected for mechanical and structural analysis. All animal work was performed according to the guidelines approved by the McMaster University Animal Research Ethics Board.
12-14 week old SHRs were implanted with radiotelemetry devices and treated with the nitric oxide synthase inhibitor L-NAME for 18 days. Rats were given daily injections of either vehicle or 4μ8c (2.5 mg/kg/day i.p.). […] At Day 6, SBP had increased from 187.4±5.4 mmHg to 228.0±15.5 mmHg (p<0.05) and DBP from 134.8±6.5 mmHg to 174.5±13.6 mmHg. At Day 14, SBP and DBP reached a peak of 262.6±13.9 mmHg and 210.4±14.8 mmHg, respectively. […] In the L-NAME+4μ8c group, SBP increased from 166.6±8.4 mmHg at baseline to 216.7±4.8 mmHg at Day 6 while DBP increased from 124.7±5.5 mmHg at baseline to 166.2±8.2 mmHg at Day 6. SBP and DBP peaked at 232.3±5.4 mmHg and 192.1±17.0 mmHg, respectively, at Day 9. […] Vessels were stained with PicroSirius Red and imaged using a light microscope (FIG. 5A). Collagen content in homogenized aortic tissue was measured using the PSR-based colorometric assay.

[3] = test system: SHR/L-NAME model of hypertension; experiment: Cardiac hypertrophy and fibrosis in L-NAME-treated SHRs; type: in vivo, rat
Procedure: 12-14 week old male SHRs were randomized to receive vehicle, L-NAME (50 mg/L) or L-NAME and 4μ8c (2.5 mg/kg/day i.p.) for 18 days. (A) Cardiac hypertrophy measured using heart weight to body ratio. (B) Quantification of Picro-Sirius Red-stained area in heart tissue. (C) Picro-Sirius Red staining of transverse heart sections. Bar: 4×, 500 μm; 20×, 200 μm. Data is presented as mean±SEM. *, p<0.05 vs. NT. #, p<0.05 vs L-NAME.
as §1, with “At 18 days, animals were sacrificed, organs were harvested and the aorta was collected for mechanical and structural analysis. All animal work was performed according to the guidelines approved by the McMaster University Animal Research Ethics Board.” left out
Tissues were fixed in 4% paraformaldehyde and subsequently embedded in paraffin. […] Collagen area density was calculated by dividing the PSR-stained area by the total area of the vessel.

[4] = L-NAME+4μ8c group, peak at Day 9
[5] = SHR, L-NAME 50 mg/L, 4μ8c 2.5 mg/kg/day i.p., 18 days

In the case of `Cc1cc(=O)oc2c(C=O)c(O)ccc12` [4μ8c, 7-Hydroxy-4-methyl-2-oxo-2H-chromene-8-carbaldehyde], the “collagen levels in response to TGF-β1” value [1] is reported as “reduced”, the DBP ([2]; L-NAME+4μ8c group, Day 6) is reported as 166.2±8.2 mmHg and the SBP ([2]; L-NAME+4μ8c group, Day 6) is reported as 216.7±4.8 mmHg. For the same molecule, the DBP ([2]; L-NAME+4μ8c group, baseline) was 124.7±5.5 mmHg, the SBP ([2]; L-NAME+4μ8c group, baseline) was 166.6±8.4 mmHg and the DBP peak [2, 4] was 192.1±17.0 mmHg. The SBP peak [2, 4] was 232.3±5.4 mmHg, the “effect on L-NAME-induced elevation in blood pressure” value [2, 5] was “did not have an effect” and the “effect on L-NAME-induced elevation in heart rate” value [2, 5] was “did not have an effect”. The “fibrosis in the left and right ventricles by PSR staining” value ([3]; 4μ8c-treated animals vs L-NAME group, FIGS. 7B and 7C) was “significantly reduced” and the “cardiac hypertrophy (heart weight to body weight ratio)” value ([3]; L-NAME+4μ8c group, 18 days, FIG. 7A) was 4.293±0.438 mg HW/g BW.
